From the supplement of paper PMC8967900

Assays:
Experiment in all cases: selective drug sensitivity score (sDSS, relative to normal bone marrow) (sDSS (score)); higher = more potent and effective on the cell line relative to normal bone marrow cells
Conditions in all cases: 72 h
[1] = tested on: CCRF-CEM
[2] = tested on: P12-ICHIKAWA
[3] = tested on: LC4-1
[4] = tested on: REH
[5] = tested on: COG-LL-319h
[6] = tested on: MN-60
[7] = tested on: TMD5
[8] = tested on: COG-LL-332h
[9] = tested on: COG-LL-394h
[10] = tested on: PEER
[11] = tested on: SUP-B15
[12] = tested on: ALL-SIL
[13] = tested on: KASUMI-9
[14] = tested on: DND-41
[15] = tested on: KASUMI-2
[16] = tested on: HPB-ALL
[17] = tested on: COG-LL-355h
[18] = tested on: KASUMI-10
[19] = tested on: NALL-1
[20] = tested on: MOLT-16
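Also: ALL cell lines in 384-well plates, five doses spanning 10,000-fold, each plate scaled between vehicle and 100 µmol/L benzalkonium chloride controls, sDSS an adapted area-under-curve metric.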

SMILES | selective drug sensitivity score [1] | selective drug sensitivity score [2] | selective drug sensitivity score [3] | selective drug sensitivity score [4] | selective drug sensitivity score [5] | selective drug sensitivity score [6] | selective drug sensitivity score [7] | selective drug sensitivity score [8] | selective drug sensitivity score [9] | selective drug sensitivity score [10] | selective drug sensitivity score [11] | selective drug sensitivity score [12] | selective drug sensitivity score [13] | selective drug sensitivity score [14] | selective drug sensitivity score [15] | selective drug sensitivity score [16] | selective drug sensitivity score [17] | selective drug sensitivity score [18] | selective drug sensitivity score [19] | selective drug sensitivity score [20]
O=C1CCc2c(Oc3ccc4c(c3)[C@@H]3[C@H](O4)[C@H]3c3nc4cc(C(F)(F)F)ccc4[nH]3)ccnc2N1 [Lifirafenib (BGB-283)] (top concentration 10000 nM) | 4.18 | 3.18 | 3.28 | 3.48 | -0.52 | 1.48 | 15.9 | 8.18 | 6.88 | 10.7 | 17 | 30 | 5.58 | 1.18 | 1.98 | 0.98 | 4.78 | 7.98 | 8.28 | 3.98
CC(C)(C)c1cc(NC(=O)Nc2ccc(Oc3ccnc4[nH]c(=O)cnc34)cc2F)n(-c2ccccc2)n1 (top concentration 25000 nM) | -2.18 | -4.58 | -1.48 | -0.78 | -1.08 | 0.42 | 2.32 | 2.02 | 0.82 | 5.32 | 10.6 | 16.1 | -1.18 | -0.78 | -1.38 | 1.12 | 1.92 | 5.62 | -0.38 | -1.08
Nc1ncnc2c1c(-c1cccc(OCc3ccccc3)c1)cn2[C@H]1C[C@@H](CN2CCC2)C1 [NVP-AEW541] (top concentration 10000 nM) | -2.42 | -2.72 | -0.92 | 0.88 | 5.08 | -3.22 | -7.62 | -1.52 | 2.48 | 0.38 | -2.02 | 4.58 | -2.72 | -1.12 | -3.62 | 1.58 | 5.38 | 3.58 | -0.42 | -2.92
O=C(CCCCCCNC(=O)c1cnc(N(c2ccccc2)c2ccccc2)nc1)NO [Rocilinostat] (top concentration 10000 nM) | 4.64 | 5.34 | 8.24 | 6.04 | 8.24 | 1.04 | 0.04 | 3.34 | 3.74 | 7.14 | 5.64 | 9.14 | 6.64 | 3.54 | 10.2 | 5.54 | 4.84 | 4.24 | -0.66 | 6.94
CNc1ncc2cc(-c3cc(NC(=O)NCCC(C)(C)C)c(F)cc3C)c(C)nc2n1 (top concentration 10000 nM) | 5.56 | 11 | 7.86 | -2.24 | 12.1 | -0.94 | 7.86 | 9.06 | 5.76 | 15 | 16.1 | 20.7 | 9.16 | 8.06 | 0.36 | 2.46 | 9.16 | 3.96 | 4.96 | 5.06
C=CC(=O)N1CC/C(=C\c2ccc(F)c([N+](=O)[O-])c2)C(=O)/C(=C/c2ccc(F)c([N+](=O)[O-])c2)C1 [VLX1570] (top concentration 10000 nM) | 1.58 | -4.92 | 0.68 | 1.98 | 2.08 | -5.32 | -2.62 | -0.52 | -1.92 | -4.72 | 1.38 | -3.62 | 0.88 | 1.18 | -2.62 | -1.22 | 6.08 | 1.58 | -4.52 | -1.32
FC(F)(F)c1ccc(CNc2ccc(Cc3c[nH]c4ncc(Cl)cc34)cn2)cn1 [Pexidartinib] (top concentration 10000 nM) | -0.72 | 0.18 | 1.98 | 0.38 | -2.22 | -1.52 | -2.22 | -2.22 | -1.32 | -0.32 | -0.22 | -0.52 | 1.18 | -2.12 | -2.22 | -1.92 | -1.92 | 8.78 | -1.92 | -0.72
CNC(=O)c1cccc(-c2ccc3c(N4CCOC[C@@H]4C)nc(N4CCOC[C@@H]4C)nc3n2)c1 [Vistusertib] (top concentration 10000 nM) | 8.22 | 3.72 | 5.12 | 9.32 | 10.6 | 2.72 | 3.02 | 4.62 | -1.28 | 5.22 | 10.7 | 8.52 | 11.8 | 9.02 | 15 | 1.12 | 6.12 | 0.32 | -3.58 | 5.62
CCn1c(-c2nonc2N)nc2c(C#CC(C)(C)O)ncc(OC[C@H]3CCCNC3)c21 (top concentration 10000 nM) | 11.9 | 4.68 | 1.08 | 12.9 | 7.38 | 0.08 | -1.12 | 9.28 | 2.18 | 1.68 | -0.32 | 6.68 | 0.98 | -1.12 | 6.38 | 3.98 | 8.98 | 0.88 | -0.32 | 11.6
